Results from ChEMBL document CHEMBL1144921, “14-amino, 14-alkylamino, and 14-acylamino analogs of oxymorphindole. Differential effects on opioid receptor binding and functional profiles” (J Med Chem, 2003).
pEC50, pKi: −log10 of the molar value.

Legend:
[1] = target: T1, Kappa-type opioid receptor (Homo sapiens, UniProt P41145); assay: Displacement of [3H]U-69593 from human recombinant Opioid receptor kappa 1 on CHO cell membranes.; type: cell-based
Mu-type opioid receptor [2] = target: T2, Mu-type opioid receptor (Homo sapiens, UniProt P35372); assay: Displacement of [3H]DAMGO from human recombinant Opioid receptor mu 1 on CHO cell membranes.; type: cell-based
T2 sequence (P35372 whole entry): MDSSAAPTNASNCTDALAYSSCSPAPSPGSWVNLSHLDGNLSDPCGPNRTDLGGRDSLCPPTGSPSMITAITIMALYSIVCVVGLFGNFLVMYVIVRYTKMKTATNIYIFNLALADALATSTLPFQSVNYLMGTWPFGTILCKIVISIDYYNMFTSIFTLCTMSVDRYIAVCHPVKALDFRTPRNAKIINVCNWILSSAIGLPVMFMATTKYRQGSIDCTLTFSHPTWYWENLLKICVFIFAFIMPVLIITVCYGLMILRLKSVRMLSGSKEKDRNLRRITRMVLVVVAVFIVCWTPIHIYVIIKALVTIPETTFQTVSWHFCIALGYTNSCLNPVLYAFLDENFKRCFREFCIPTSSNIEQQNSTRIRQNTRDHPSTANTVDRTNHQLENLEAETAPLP

[3] = target: Opioid receptors; mu & delta (Homo sapiens) (UniProt P41143+P35372); assay: Selectivity between mu opioid receptor and delta opioid receptor.; type: functional
Opioid receptors; mu & delta (Homo sapiens), sequence (P35372 whole entry, looked up): as the sequence (P35372 whole entry) above
Opioid receptors; mu & delta (Homo sapiens), sequence (P41143 whole entry, looked up): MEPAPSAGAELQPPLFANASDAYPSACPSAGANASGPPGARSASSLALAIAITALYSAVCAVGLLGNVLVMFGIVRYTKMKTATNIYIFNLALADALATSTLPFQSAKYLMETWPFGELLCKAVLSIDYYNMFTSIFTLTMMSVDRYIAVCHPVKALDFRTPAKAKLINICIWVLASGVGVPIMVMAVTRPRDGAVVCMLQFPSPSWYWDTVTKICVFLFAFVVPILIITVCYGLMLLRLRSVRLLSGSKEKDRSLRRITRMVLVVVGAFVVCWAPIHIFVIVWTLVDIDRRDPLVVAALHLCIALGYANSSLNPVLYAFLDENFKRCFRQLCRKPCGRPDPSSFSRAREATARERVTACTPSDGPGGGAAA

[4] = target: T3, Delta-type opioid receptor (Homo sapiens, UniProt P41143); assay: Stimulation of [35S]GTP-gamma-S, binding at human recombinant Opioid receptor delta 1 transfected into CHO cells.; type: functional, cell-based
T3 sequence (P41143 whole entry): as the sequence (P41143 whole entry, looked up) above

[5] = target: T3, Delta-type opioid receptor; assay: Percent stimulation of [35S]GTP-gamma-S, binding to recombinant human Opioid receptor delta 1 expressed in CHO cells; type: functional, cell-based
[6] = target: Opioid receptors; delta & kappa (Homo sapiens) (UniProt P41145+P41143); assay: Selectivity between kappa opioid receptor and delta opioid receptor.; type: functional
Opioid receptors; delta & kappa (Homo sapiens), sequence (P41143 whole entry, looked up): as above
Opioid receptors; delta & kappa (Homo sapiens), sequence (P41145 whole entry, looked up): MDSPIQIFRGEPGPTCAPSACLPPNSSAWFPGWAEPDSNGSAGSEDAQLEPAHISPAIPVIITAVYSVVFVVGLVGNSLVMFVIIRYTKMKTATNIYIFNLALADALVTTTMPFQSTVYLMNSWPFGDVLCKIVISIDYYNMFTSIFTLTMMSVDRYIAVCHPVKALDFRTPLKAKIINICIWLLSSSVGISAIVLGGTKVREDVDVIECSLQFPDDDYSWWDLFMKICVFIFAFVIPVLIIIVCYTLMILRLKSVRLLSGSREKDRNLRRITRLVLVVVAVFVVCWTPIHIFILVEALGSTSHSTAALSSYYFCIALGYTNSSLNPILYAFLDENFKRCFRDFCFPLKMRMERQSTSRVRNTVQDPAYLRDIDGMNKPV

Mu-type opioid receptor [7] = target: T2, Mu-type opioid receptor; assay: Percent stimulation of [35S]GTP-gamma-S, binding in recombinant human Opioid receptor mu 1 transfected into CHO cells; type: functional, cell-based
[8] = target: T3, Delta-type opioid receptor; assay: Displacement of [3H]C1-DPDPE from human recombinant Opioid receptor delta 1 on CHO cell membranes.; type: cell-based
[9] = target: T1, Kappa-type opioid receptor; assay: Stimulation of […] binding at human recombinant Opioid receptor kappa 1 transfected into CHO cells.; type: cell-based
[10] = target: T1, Kappa-type opioid receptor; assay: Percent stimulation of [35S]GTP-gamma-S, binding in recombinant human Opioid receptor kappa 1 transfected into CHO cells; type: functional, cell-based
Mu-type opioid receptor [11] = target: T2, Mu-type opioid receptor; assay: Stimulation of [35S]GTP-gamma-S, binding to recombinant human Opioid receptor mu 1 expressed in CHO cells; type: functional, cell-based
Mu-type opioid receptor [12] = target: T2, Mu-type opioid receptor; assay: Percent stimulation of [35S]GTP-gamma-S, binding in recombinant human mu opioid receptor transfected into CHO cells; type: functional, cell-based
[13] = target: T1, Kappa-type opioid receptor; assay: Percent stimulation of […] binding in recombinant human Opioid receptor kappa 1 transfected into CHO cells: Antagonist activity; type: cell-based; conditions: filed as antagonist
[14] = target: T1, Kappa-type opioid receptor; assay: Percent stimulation of [35S]GTP-gamma-S, binding in recombinant human Opioid receptor kappa 1 transfected into CHO cells: Antagonist activity; type: functional, cell-based; conditions: filed as antagonist

T1 sequence (P41145 whole entry): as the sequence (P41145 whole entry, looked up) above

SMILES: CN1CC[C@]23c4c5ccc(O)c4O[C@H]2c2[nH]c4ccccc4c2C[C@@]3(NCCc2ccccc2)C1C5
- pKi [1]: 7.86
- pKi (Mu-type opioid receptor [2]): 8.77
- Selectivity [3]: 1.5
- pEC50 [4]: 9.02
- Stimulation [5]: 33%
- Selectivity [6]: 13
- Stimulation (Mu-type opioid receptor [7]): 93%
- pKi [8]: 8.96
- pEC50 [9]: 7.79
- Stimulation [10]: 74%
- pEC50 (Mu-type opioid receptor [11]): 8.27

SMILES: CCCCN[C@@]12Cc3c([nH]c4ccccc34)[C@@H]3Oc4c(O)ccc5c4[C@@]31CCN(C)C2C5
- pKi [1]: 7.44
- pKi (Mu-type opioid receptor [2]): 7.43
- Selectivity [3]: 27
- pEC50 [4]: 8.33
- Stimulation [5]: 36%
- Selectivity [6]: 26
- Stimulation (Mu-type opioid receptor [7]): 40%
- pKi [8]: 8.86
- pEC50 [9]: 6.03
- Stimulation [10]: 33%
- pEC50 (Mu-type opioid receptor [11]): 6.57

SMILES: CN1CC[C@]23c4c5ccc(O)c4O[C@H]2c2[nH]c4ccccc4c2C[C@@]3(NCCCc2ccccc2)C1C5
- pKi [1]: 8.11
- pKi (Mu-type opioid receptor [2]): 7.99
- Selectivity [3]: 5
- pEC50 [4]: 9.06
- Stimulation [5]: 37%
- Stimulation (Mu-type opioid receptor [12]): 50%
- Selectivity [6]: 4
- pKi [8]: 8.71
- pEC50 [9]: 7.57
- Stimulation [10]: 65%
- pEC50 (Mu-type opioid receptor [11]): 7.35

SMILES: CCN[C@@]12Cc3c([nH]c4ccccc34)[C@@H]3Oc4c(O)ccc5c4[C@@]31CCN(C)C2C5
- pKi [1]: 7.20
- pKi (Mu-type opioid receptor [2]): 7.12
- Selectivity [3]: 105
- pEC50 [4]: 9.48
- Stimulation [5]: 43%
- Selectivity [6]: 87
- Stimulation (Mu-type opioid receptor [7]): 50%
- pKi [8]: 9.14
- Activity [13]: Antagonist
- pEC50 (Mu-type opioid receptor [11]): 6.74

SMILES: CN1CC[C@]23c4c5ccc(O)c4O[C@H]2c2[nH]c4ccccc4c2C[C@@]3(CCCc2ccccc2)C1C5
- pKi [1]: 7.20
- pKi (Mu-type opioid receptor [2]): 8.31
- Selectivity [3]: 0.2
- pEC50 [4]: 8.12
- Stimulation [5]: 65%
- Selectivity [6]: 2.7
- Stimulation (Mu-type opioid receptor [7]): 91%
- pKi [8]: 7.63
- pEC50 [9]: 7.02
- Stimulation [10]: 67%
- pEC50 (Mu-type opioid receptor [11]): 7.67

SMILES: CCCCCCC(=O)N[C@@]12Cc3c([nH]c4ccccc34)[C@@H]3Oc4c(O)ccc5c4[C@@]31CCN(C)C2C5
- pKi [1]: 6.39
- pKi (Mu-type opioid receptor [2]): 7.48
- Selectivity [3]: 3.2
- pEC50 [4]: 7.72
- Stimulation [5]: 55%
- Stimulation (Mu-type opioid receptor [12]): 44%
- Activity [14]: Antagonist
- Selectivity [6]: 40
- pKi [8]: 7.99
- pEC50 (Mu-type opioid receptor [11]): 7.29

SMILES: CN1CC[C@]23c4c5ccc(O)c4O[C@H]2c2[nH]c4ccccc4c2C[C@@]3(NC(=O)CCc2ccccc2)C1C5
- pKi [1]: 7.61
- pKi (Mu-type opioid receptor [2]): 8.02
- Selectivity [3]: 2.3
- pEC50 [4]: 8.85
- Stimulation [5]: 72%
- Activity [14]: Antagonist
- Selectivity [6]: 5.8
- Stimulation (Mu-type opioid receptor [7]): 27%
- pKi [8]: 8.37
- pEC50 (Mu-type opioid receptor [11]): 8.28

SMILES: CN1CC[C@]23c4c5ccc(O)c4O[C@H]2c2[nH]c4ccccc4c2C[C@@]3(N)C1C5
- pKi [1]: 6.40
- pKi (Mu-type opioid receptor [2]): 5.98
- Selectivity [3]: 365
- pEC50 [4]: 8.07
- Stimulation [5]: 38%
- pKi [8]: 8.54
- Activity [13]: Antagonist
- pEC50 (Mu-type opioid receptor [11]): < 6.00

SMILES: Oc1ccc2c3c1O[C@H]1c4[nH]c5ccccc5c4C[C@@]4(O)[C@@H](C2)N(CC2CC2)CC[C@]314
- Activity [14]: Antagonist

SMILES: CN1CC[C@]23c4c5ccc(O)c4O[C@H]2c2[nH]c4ccccc4c2C[C@@]3(NC(=O)Cc2ccccc2)C1C5
- pKi [1]: 6.83
- pKi (Mu-type opioid receptor [2]): 7.53
- Selectivity [3]: 4.5
- pEC50 [4]: 8.92
- Stimulation [5]: 89%
- Selectivity [6]: 23
- Stimulation (Mu-type opioid receptor [7]): 53%
- pKi [8]: 8.18
- pEC50 [9]: 7.02
- Stimulation [10]: 36%
- pEC50 (Mu-type opioid receptor [11]): 7.02

SMILES: C[C@@H](NC(=O)[C@@H](N)Cc1ccc(O)cc1)C(=O)NCC(=O)N(C)[C@@H](Cc1ccccc1)C(=O)NCCO
- Stimulation (Mu-type opioid receptor [7]): 100%
- Stimulation [10]: 62%

SMILES: CN1CC[C@]23c4c5ccc(O)c4O[C@H]2c2[nH]c4ccccc4c2C[C@@]3(O)[C@H]1C5 [OXYMORPHINDOLE]
- pKi [1]: 6.40
- pKi (Mu-type opioid receptor [2]): 6.44
- Selectivity [3]: 284
- Selectivity [6]: 309
- pKi [8]: 8.89

SMILES: CCCCC(=O)N[C@@]12Cc3c([nH]c4ccccc34)[C@@H]3Oc4c(O)ccc5c4[C@@]31CCN(C)C2C5
- pKi [1]: 6.14
- pKi (Mu-type opioid receptor [2]): 7.29
- Selectivity [3]: 25
- pEC50 [4]: 8.48
- Stimulation [5]: 74%
- Activity [14]: Antagonist
- Selectivity [6]: 349
- Activity (Mu-type opioid receptor [7]): 31%
- pKi [8]: 8.68
- pEC50 [9]: 7.24
- pEC50 (Mu-type opioid receptor [11]): 6.83

SMILES: Oc1ccc2c3c1O[C@H]1c4[nH]c5c(c4C[C@@]4(O)[C@@H](C2)N(CC2CC2)CC[C@]314)C[C@@]1(O)[C@H]2Cc3ccc(O)c4c3[C@@]1(CCN2CC1CC1)[C@H]5O4
- Activity [14]: Antagonist
